≈ marks a conversion by molar mass, not a printed value. Like-named read-outs stand apart in the source and are kept apart here.
Tests used:
[1] = tested on: S. aureus 53-180; test: In vitro antibacterial activity (minimal inhibitory concentration, agar dilution); format: cell-based
Protocol: (§1) The compounds have shown activity in vitro against one or more of the following strains of bacteria: S. aureus Smith, S. aureus 53-180, N. catarrhalis 8193, E. coli 9637, S. paratyphi 11737, K. pneumoniae 10031, or P. vulgaris 6896.
(§2) A stock solution or suspension of the test compound at a concentration of 2500 μg/ml. is prepared utilizing a suitable solvent or medium such as aqueous sodium hydroxide, aqueous lactic acid, methyl cellosolve, dimethylsulfoxide, dimethylacetamide, ethylene glycol, dimethylformamide, formamide, propylene glycol, acetone or methanol. Two-fold dilutions are made by adding appropriate amounts of sterile water to the solution or suspension of the test substance. One ml. quantities of each dilution are incorporated into Wellcotest Sensitivity Test Agar fortified with 5% hemolyzed horse blood (9 ml. vol.) in sterile Petri dishes to give plates containing varying concentrations of the test compound. The hardened surfaces of each plate are incubated with the test organism, and the plates are incubated for 18 hours at 35° C.

[2] = tested on: P. vulgaris 6896; test: as above; format: cell-based
Protocol: as §1, §2

[3] = tested on: S. aureus Smith; test: as above; format: cell-based; conditions: Staphylococcus aureus
Protocol: as §1, §2

[4] = tested on: S. paratyphi 11737; test: as above; format: cell-based; conditions: Salmonella enterica, Wellcotest Sensitivity Test Agar with 5% hemolyzed horse blood, 18 hours at 35° C.
Protocol: as §1, §2

[5] = tested on: E. coli 9637; test: as above; format: cell-based
Protocol: as §1, §2

[6] = tested on: K. pneumoniae 10031; test: as above; format: cell-based
Protocol: as §1, §2

[7] = tested on: N. catarrhalis 8193; test: as above; format: cell-based; conditions: Wellcotest Sensitivity Test Agar with 5% hemolyzed horse blood, 18 hours at 35° C.
Protocol: as §1, §2

[8] = tested on: Escherichia coli (E-3); test: In vivo antibacterial synergism with sulfomethoxazole (mouse protection test); conditions: E. coli (E-3), CD-1 mice; for ED50: Escherichia coli, po, single dose, alone, treated immediately after infecting, read-out: PD50
Protocol: (§3) The test agent is weighed, suspended in 0.5% aqueous carboxymethyl cellulose, hemogenized (glass tissue grinder) and diluted according to the design of the experiment. Mice (male, 18±1 g., CD-1 strain) are pre-weighed, pooled, infected at random intraperitoneally with a 0.5 ml. standardized suspension (LD95 ±5%) of the bacterial organism in 5% gastric mucin and treated at random with single doses of the test agents either at the time of infection or six hours after infecting. The treated groups consist of ten mice per dosage level. Deaths are recorded daily for 14 days and the PD50 (mice are treated at time of infection) and CD50 (mice are treated six hours after infecting) values are calculated by the method of Reed and Muench [Amer. J. Hyg., 27, (1938)].

[9] = tested on: Escherichia coli (E-2); test: as above; conditions: E. coli (E-2), CD-1 mice; for ED50: Escherichia coli, po, single dose, alone, treated immediately after infecting, read-out: PD50
Protocol: as §3

[10] = tested on: Staphylococcus aureus CHP; test: as above; conditions: CD-1 mice; for ED50: po, single dose, alone, treated immediately after infecting, read-out: PD50
Protocol: as §3

[11] = tested on: bacterial infections; test: Potentiation of sulfa drug against bacterial infections in mice, oral; format: in vivo, mouse; conditions: oral route of administration in mice
Protocol: The invention also provides compounds which will potentiate the antibacterial effects of sulfa drugs.
as §3

[12] = Staphylococcus aureus, 53180, 18 h
[13] = Klebsiella pneumoniae, K. pneumoniae 10031, Wellcotest Sensitivity Test Agar with 5% hemolyzed horse blood, 18 hours at 35° C., read-out: MIC
[14] = Escherichia coli, E. coli 9637, Wellcotest Sensitivity Test Agar with 5% hemolyzed horse blood, 18 hours at 35° C., read-out: MIC
[15] = Klebsiella pneumoniae, 10031, 18 h
[16] = p.o., SM dose in combination with Cpd.
[17] = S. aureus Smith, Wellcotest Sensitivity Test Agar with 5% hemolyzed horse blood, 18 hours at 35° C., read-out: MIC
[18] = Staphylococcus aureus, 53180, S. aureus 53-180, Wellcotest Sensitivity Test Agar with 5% hemolyzed horse blood, 18 hours at 35° C., read-out: MIC
[19] = Proteus vulgaris, P. vulgaris 6896, Wellcotest Sensitivity Test Agar with 5% hemolyzed horse blood, 18 hours at 35° C., read-out: MIC
[20] = p.o., Cpd. dose in combination with SM

Row | Compound | MIC [1, 12] [mg/L] | MIC ([3]; 18 h) [mg/L] | MIC [4] [mg/L] | MIC [6, 13] [mg/L] | MIC [5, 14] [mg/L] | MIC [7] [mg/L] | MIC [3, 17] [mg/L] | MIC [1, 18] [mg/L] | MIC [2, 19] [mg/L] | also measured
1 | Nc1nc(N)c2c(ccc3c2ccn3Cc2ccc(O)cc2)n1 [Example 9, 7-[(4-Hydroxyphenyl)methyl]-7H-pyrrolo[3,2-f]quinazoline-1,3-diamine] | 0.488 (≈ 1.6 µM) | 0.488 (≈ 1.6 µM) | 3.9 (≈ 12.8 µM) | 0.244 (≈ 0.799 µM) | – | – | – | – | – | MIC ([2]; Proteus vulgaris, 6896, 18 h): 250 mg/L (≈ 819 µM); MIC ([5]; Escherichia coli, 9637, 18 h): 0.976 mg/L (≈ 3.2 µM)
2 | Nc1nc(N)c2c(ccc3c2ccn3Cc2ccc(Cl)cc2Cl)n1 [Example 2, 7-[(2,4-Dichlorophenyl)methyl]-7H-pyrrolo[3,2-f]quinazoline-1,3-diamine] | 0.488 (≈ 1.36 µM) | 0.976 (≈ 2.72 µM) | 31.3 (≈ 87.4 µM) | – | 3.9 (≈ 10.9 µM) | 0.0038 (≈ 0.0106 µM) | – | – | – | MIC [6, 15]: 0.488 mg/L (≈ 1.36 µM)
3 | Cc1cc(NS(=O)(=O)c2ccc(N)cc2)no1 [SM, sulfomethoxazole, reference compound] | – | – | – | – | – | – | – | – | – | ED50 [8]: 28.1 mg/kg; PD50 of SM in combination SM/Cpd. [8, 16]: 12.5 mg. per kg.; ED50 [9]: 25 mg/kg; PD50 of SM in combination SM/Cpd. [9, 16]: 5.25 mg. per kg.; PD50 of SM in combination SM/Cpd. [10, 16]: 50 mg. per kg.; ED50 [10]: 259 mg/kg
4 | Nc1nc(N)c2c(ccc3c2ccn3-c2ccc(C(F)(F)F)cc2)n1 [Example 12] | 31.3 (≈ 91.2 µM) | 31.3 (≈ 91.2 µM) | – | 3.9 (≈ 11.4 µM) | – | – | – | – | – | MIC ([5]; Escherichia coli, 9637, 18 h): 250 mg/L (≈ 728 µM)
5 | NC(=O)c1ccc(-n2ccc3c4c(N)nc(N)nc4ccc32)cc1 [Example 13] | 7.81 (≈ 24.5 µM) | – | – | 0.976 (≈ 3.07 µM) | – | – | 1.95 (≈ 6.13 µM) | – | – | –
6 | COC(=O)c1cccc(Cn2ccc3c4c(N)nc(N)nc4ccc32)c1 [Example 4] | – | 0.976 (≈ 2.81 µM) | 31.3 (≈ 90.1 µM) | 0.244 (≈ 0.702 µM) | 1.95 (≈ 5.61 µM) | – | – | 0.122 (≈ 0.351 µM) | 125 (≈ 360 µM) | –
7 | COC(=O)c1ccc(Cn2ccc3c4c(N)nc(N)nc4ccc32)cc1 [Example 8] | 7.81 (≈ 22.5 µM) | 31.3 (≈ 90.1 µM) | 250 (≈ 720 µM) | 15.6 (≈ 44.9 µM) | – | – | – | – | – | MIC ([2]; Proteus vulgaris, 6896, 18 h): 250 mg/L (≈ 720 µM); MIC ([5]; Escherichia coli, 9637, 18 h): 62.5 mg/L (≈ 180 µM)
8 | Nc1nc(N)c2c(ccc3c2ccn3-c2ccncc2)n1 [Example 10, 7-(4-Pyridinyl)-7H-pyrrolo-[3,2-f]quinazoline-1,3-diamine] | – | – | 0.976 (≈ 3.53 µM) | – | 0.244 (≈ 0.883 µM) | 0.0152 (≈ 0.055 µM) | 0.448 (≈ 1.62 µM) | 0.224 (≈ 0.811 µM) | – | MIC ([2]; Proteus vulgaris, 6896, 18 h): 62.5 mg/L (≈ 226 µM); MIC [6, 15]: 0.976 mg/L (≈ 3.53 µM); synergistic effect with sulfamethoxazole against bacterial infections [11]: gave a synergistic effect with sulfamethoxazole against bacterial infections; ED50 [8]: 313 mg/kg; PD50 of Cpd. in combination SM/Cpd. [8, 20]: 6.25 mg. per kg.; ED50 [9]: > 400 mg/kg; PD50 of Cpd. in combination SM/Cpd. [9, 20]: 1.20 mg. per kg.; PD50 of Cpd. in combination SM/Cpd. [10, 20]: 7.28 mg. per kg.; ED50 [10]: > 400 mg/kg
9 | CC(=O)c1cccc(Cn2ccc3c4c(N)nc(N)nc4ccc32)c1 [Example 3] | – | – | 0.976 (≈ 2.95 µM) | 0.031 (≈ 0.0935 µM) | 0.244 (≈ 0.736 µM) | – | 0.122 (≈ 0.368 µM) | 0.061 (≈ 0.184 µM) | 3.9 (≈ 11.8 µM) | –
10 | CCCC(C)OC(=O)c1ccc(Cn2ccc3c4c(N)nc(N)nc4ccc32)cc1 (stereo not drawn) [Example 7] | – | – | – | 15.6 (≈ 38.7 µM) | – | 7.81 (≈ 19.4 µM) | 15.6 (≈ 38.7 µM) | 7.81 (≈ 19.4 µM) | – | –
11 | CC(C)OC(=O)c1ccc(Cn2ccc3c4c(N)nc(N)nc4ccc32)cc1 [Example 6] | 0.488 (≈ 1.3 µM) | 0.488 (≈ 1.3 µM) | 62.5 (≈ 166 µM) | – | 15.6 (≈ 41.6 µM) | 0.122 (≈ 0.325 µM) | – | – | 125 (≈ 333 µM) | MIC [6, 15]: 0.488 mg/L (≈ 1.3 µM)
12 | Cc1ccnc(-n2ccc3c4c(N)nc(N)nc4ccc32)c1 [Example 11] | 0.976 (≈ 3.36 µM) | 3.9 (≈ 13.4 µM) | 7.81 (≈ 26.9 µM) | 0.244 (≈ 0.84 µM) | 3.9 (≈ 13.4 µM) | 0.0152 (≈ 0.0524 µM) | – | – | 15.6 (≈ 53.7 µM) | –

Source: US4208520A, “7-(Substituted)-7H-pyrrolo[3,2-f]quinazoline-1,3-diamines” (American Home Products Corporation, priority 1978, dated 1980)
